Results published in ChEMBL document CHEMBL1147631, “Aminomethylpyrimidines as novel DPP-IV inhibitors: a 10(5)-fold activity increase by optimization of aromatic substituents” (Bioorg Med Chem Lett, 2004).

Each compound was assayed against Dipeptidyl peptidase 4 (Homo sapiens, UniProt P27487) (assay: Inhibitory activity against Dipeptidylpeptidase IV mediated cleavage of Ala-Pro-7-amido-4-tri-fluoromethylcoumarin in a fluorogenic assay).
Assay type: functional

Dipeptidyl peptidase 4, sequence (P27487 whole entry): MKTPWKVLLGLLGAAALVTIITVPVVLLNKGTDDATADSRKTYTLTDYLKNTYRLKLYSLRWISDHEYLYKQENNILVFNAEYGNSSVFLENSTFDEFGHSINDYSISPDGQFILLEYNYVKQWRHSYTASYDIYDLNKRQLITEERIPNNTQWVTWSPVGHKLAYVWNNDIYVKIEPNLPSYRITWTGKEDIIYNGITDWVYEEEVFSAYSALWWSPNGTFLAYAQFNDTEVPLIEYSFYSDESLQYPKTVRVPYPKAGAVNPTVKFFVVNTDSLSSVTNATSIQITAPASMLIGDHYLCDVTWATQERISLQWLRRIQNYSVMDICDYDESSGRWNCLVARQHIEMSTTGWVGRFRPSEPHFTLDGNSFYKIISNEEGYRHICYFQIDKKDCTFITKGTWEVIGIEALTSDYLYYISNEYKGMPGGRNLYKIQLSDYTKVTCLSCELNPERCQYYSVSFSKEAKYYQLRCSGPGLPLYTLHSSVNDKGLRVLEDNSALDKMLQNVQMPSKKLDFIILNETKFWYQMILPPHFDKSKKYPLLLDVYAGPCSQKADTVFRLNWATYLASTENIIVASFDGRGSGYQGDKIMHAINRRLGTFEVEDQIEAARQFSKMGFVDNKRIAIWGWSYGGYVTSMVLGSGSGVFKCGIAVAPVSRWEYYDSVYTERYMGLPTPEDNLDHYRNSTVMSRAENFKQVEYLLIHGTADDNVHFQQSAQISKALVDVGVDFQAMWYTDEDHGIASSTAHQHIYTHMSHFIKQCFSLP

SMILES | IC50
NCc1c(N)nc(-c2ccccc2)nc1-c1cccc(Cl)c1 | 31000 nM
NCc1c(N)nc(-c2cccc(C(F)(F)F)c2)nc1-c1ccc(Cl)cc1Cl | 130 nM
Cc1ccc(-c2nc(-c3ccccc3)nc(N)c2CN)cc1 | 1000 nM
COc1ccccc1-c1nc(-c2ccccc2)nc(N)c1CN | 1500 nM
COc1cccc(-c2nc(-c3ccccc3)nc(N)c2CN)c1 | 80000 nM
NCc1c(N)nc(-c2ccccc2)nc1-c1ccc(C(F)(F)F)cc1 | 1100 nM
NCc1c(N)nc(-c2ccccc2)nc1-c1ccc(F)cc1 | 18000 nM
NCc1c(N)nc(-c2ccccc2)nc1-c1ccccc1F | 14000 nM
NCc1c(N)nc(-c2ccccc2)nc1-c1ccccc1Cl | 2500 nM
NCc1c(N)nc(-c2ccccc2)nc1-c1cccc(C(F)(F)F)c1 | 170000 nM
Cc1cccc(-c2nc(-c3ccccc3)nc(N)c2CN)c1 | 20000 nM
NCc1c(N)nc(-c2ccccc2)nc1-c1ccc(Cl)cc1 | 1400 nM
COc1ccc(-c2nc(-c3ccccc3)nc(N)c2CN)cc1 | 47000 nM
NCc1c(N)nc(-c2ccccc2F)nc1-c1ccc(Cl)cc1Cl | 47 nM
NCc1c(N)nc(-c2ccccc2)nc1-c1cccc(F)c1 | 40000 nM
Cc1ccccc1-c1nc(-c2ccccc2)nc(N)c1CN | 1500 nM
NCc1c(N)nc(-c2ccccc2)nc1-c1ccccc1 | 42000 nM
NCc1c(N)nc(-c2ccccc2)nc1-c1ccccc1C(F)(F)F | 14000 nM

Second part, the compound after the results:

IC50 | SMILES
0.2 nM | NCc1c(N)nc(-c2ccc(F)cc2)nc1-c1ccc(Cl)cc1Cl
340 nM | COc1cccc(-c2nc(N)c(CN)c(-c3ccc(Cl)cc3Cl)n2)c1
1750 nM | Cc1ccccc1-c1nc(N)c(CN)c(-c2ccc(Cl)cc2Cl)n1
0.9 nM | Cc1cccc(-c2nc(N)c(CN)c(-c3ccc(Cl)cc3Cl)n2)c1
240 nM | NCc1c(N)nc(-c2cccc(Cl)c2)nc1-c1ccc(Cl)cc1Cl
3 nM | NCc1c(N)nc(-c2ccc(F)c(F)c2)nc1-c1ccc(Cl)cc1Cl
180 nM | NCc1c(N)nc(-c2ccc(C(F)(F)F)cc2)nc1-c1ccc(Cl)cc1Cl
100 nM | COc1ccc(-c2nc(N)c(CN)c(-c3ccc(Cl)cc3Cl)n2)cc1
350 nM | COc1ccccc1-c1nc(N)c(CN)c(-c2ccc(Cl)cc2Cl)n1
10 nM | NCc1c(N)nc(-c2ccccc2)nc1-c1ccc(Cl)cc1Cl
90 nM | Cc1ccc(-c2nc(N)c(CN)c(-c3ccc(Cl)cc3Cl)n2)cc1
53 nM | NCc1c(N)nc(-c2ccc(Cl)cc2)nc1-c1ccc(Cl)cc1Cl
